Reference: PubChem BioAssay AID328 (DTP/NCI, 2004)
“And” between values parts separate entries of the source, which are not always exact repeats. Identical values can stand only once. Toxic doses and inconclusive results are not listed.

System: BDF1 mice, P388 leukemia ip, median survival T/C
Assay: NCI In Vivo Anticancer Drug Screen. Data for tumor model P388 Leukemia (intraperitoneal) in B6D2F1 (BDF1) mice
Conditions: endpoint: median survival time, higher = longer survival
Outline: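 Each value expresses how treatment altered survival: treated-mouse outcome over vehicle-mouse outcome, both groups bearing the transplanted tumour.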

[1] = dose: 25.0 mg/kg/injection, schedule: Q04DX003 (ip), vehicle: saline with Tween-80
[2] = dose: 50.0 mg/kg/injection, schedule: Q01DX009 (ip), vehicle: Klucel (hydroxypropylcellulose) (HPC)
[3] = dose: 400.0 mg/kg/injection, schedule: Q01DX009 (ip), vehicle: saline with Tween-80
[4] = dose: 100.0 mg/kg/injection, schedule: Q04DX003 (ip), vehicle: Klucel (hydroxypropylcellulose) (HPC)
[5] = dose: 100.0 mg/kg/injection, schedule: Q01DX009 (ip), vehicle: saline with Tween-80
[6] = dose: 200.0 mg/kg/injection, schedule: Q01DX009 (ip), vehicle: saline with Tween-80

Structure (SMILES): CCCCC(I)C(C)(C)[n+]1ccccc1 (stereo not given)
- T/C (dose: 3.12 mg/kg/injection, schedule: Q04DX003 (ip), vehicle: saline with Tween-80): 100 % of control
- T/C (dose: 6.25 mg/kg/injection, schedule: Q04DX003 (ip), vehicle: saline with Tween-80): 95 % of control
- T/C (dose: 12.5 mg/kg/injection, schedule: Q01DX009 (ip), vehicle: saline with Tween-80): 100 % of control
- T/C (dose: 12.5 mg/kg/injection, schedule: Q04DX003 (ip), vehicle: saline with Tween-80): 87 % of control
- T/C (dose: 25.0 mg/kg/injection, schedule: Q01DX009 (ip), vehicle: saline with Tween-80): 113 % of control
- T/C [1]: 103 % of control
- T/C (dose: 50.0 mg/kg/injection, schedule: Q04DX003 (ip), vehicle: saline with Tween-80): 96 % of control

Structure (SMILES): CC(=O)C1COC(O)C1C (stereo not given)
- T/C (dose: 0.63 mg/kg/injection, schedule: Q01DX010 (ip), vehicle: saline): 95 % of control
- T/C (dose: 1.25 mg/kg/injection, schedule: Q01DX009 (ip), vehicle: saline): 115 % of control and 103 % of control
- T/C (dose: 1.25 mg/kg/injection, schedule: Q01DX010 (ip), vehicle: saline): 100 % of control
- T/C (dose: 2.5 mg/kg/injection, schedule: Q01DX010 (ip), vehicle: saline): 116 % of control

Structure (SMILES): C=CC(=O)c1c(O)cc(O)c2c1C(C)C(=O)O2 (stereo not given)
- T/C (dose: 75.0 mg/kg/injection, schedule: Q01DX009 (ip), vehicle: Klucel (hydroxypropylcellulose) (HPC)): 113 % of control

Structure (SMILES): C=C(C)C12OC3(c4ccccc4)OC1C1C4OC4(CO)C(O)C4(O)C(=O)C(C)=CC4C1(O3)C(C)C2OC(=O)/C=C/C=C/CCCCC (stereo not given)
- T/C (dose: 6.3 micrograms/kg/injection, schedule: Q## X009 (ip), vehicle: saline + alcohol): 107 % of control
- T/C (dose: 12.5 micrograms/kg/injection, schedule: Q## X009 (ip), vehicle: saline + alcohol): 103 % of control
- T/C (dose: 25.0 micrograms/kg/injection, schedule: Q## X009 (ip), vehicle: saline + alcohol): 103 % of control
- T/C (dose: 200.0 micrograms/kg/injection, schedule: Q## X009 (ip), vehicle: saline + alcohol): 106 % of control

Structure (SMILES): CC1=CC(=C2C=CC(=[N+](C)C)C=C2)C=C(C)S1
- T/C (dose: 3.12 mg/kg/injection, schedule: Q01DX009 (ip), vehicle: distilled water + Tween-80 + alcohol): 113 % of control
- T/C (dose: 6.25 mg/kg/injection, schedule: Q01DX009 (ip), vehicle: distilled water + Tween-80 + alcohol): 109 % of control
- T/C (dose: 12.5 mg/kg/injection, schedule: Q01DX009 (ip), vehicle: distilled water + Tween-80 + alcohol): 114 % of control
- T/C (dose: 25.0 mg/kg/injection, schedule: Q01DX009 (ip), vehicle: distilled water + Tween-80 + alcohol): 97 % of control

Structure (SMILES): CC(C)(C)OC(=O)NNC(=O)c1ccc([N+](=O)[O-])cc1
- T/C [2]: 90 % of control
- T/C (dose: 200.0 mg/kg/injection, schedule: Q01DX009 (ip), vehicle: Klucel (hydroxypropylcellulose) (HPC)): 95 % of control

Structure (SMILES): COc1cccc2c1C(=O)c1c(O)c3c(c(O)c1C2=O)CC(O)(/C(C)=N/NC(=O)CCCCCCCCC(=O)N/N=C(\C)C1(O)Cc2c(O)c4c(c(O)c2C(OC2CC(N)C(O)C(C)O2)C1)C(=O)c1c(OC)cccc1C4=O)CC3OC1CC(N)C(O)C(C)O1 (stereo not given)
- T/C (dose: 3.13 mg/kg/injection, schedule: Q01DX009 (ip), vehicle: water): 172 % of control
- T/C (dose: 6.25 mg/kg/injection, schedule: Q01DX009 (ip), vehicle: water): 210 % of control
- T/C (dose: 25.0 mg/kg/injection, schedule: Q01DX009 (ip), vehicle: water): 88 % of control

Structure (SMILES): NC1(C(=O)O)CCCc2ccc(N(CCCl)CCCl)cc21 (stereo not given)
- T/C (dose: 16.5 mg/kg/injection, schedule: Q04DX003 (ip), vehicle: saline with Tween-80): 263 % of control and 272 % of control
- T/C [1]: 272 % of control
- T/C (dose: 37.5 mg/kg/injection, schedule: Q04DX003 (ip), vehicle: saline with Tween-80): 177 % of control

Structure (SMILES): COc1cc2c(cc1OC)C1CCN3CCCC3N1CC2 (stereo not given)
- T/C (dose: 100.0 mg/kg/injection, schedule: Q01DX001 (ip), vehicle: Klucel (hydroxypropylcellulose) (HPC)): 109 % of control
- T/C (dose: 200.0 mg/kg/injection, schedule: Q01DX001 (ip), vehicle: Klucel (hydroxypropylcellulose) (HPC)): 90 % of control

Structure (SMILES): CCOC(=O)C(CC(C)C)NC(=O)C(Cc1ccc(N(CCCl)CCCl)cc1)NC(C)=O (stereo not given)
- T/C (dose: 1.0 mg/kg/injection, schedule: Q01DX009 (ip), vehicle: other): 104 % of control
- T/C (dose: 2.0 mg/kg/injection, schedule: Q01DX009 (ip), vehicle: other): 109 % of control
- T/C (dose: 8.0 mg/kg/injection, schedule: Q01DX009 (ip), vehicle: other): 163 % of control
- T/C (dose: 32.0 mg/kg/injection, schedule: Q01DX009 (ip), vehicle: other): 163 % of control
- T/C (dose: 64.0 mg/kg/injection, schedule: Q01DX009 (ip), vehicle: other): 172 % of control
- T/C (dose: 128.0 mg/kg/injection, schedule: Q01DX009 (ip), vehicle: other): 195 % of control
- T/C (dose: 256.0 mg/kg/injection, schedule: Q01DX009 (ip), vehicle: other): 89 % of control

Structure (SMILES): OCC(O)CCBr (stereo not given)
- T/C (dose: 264.0 mg/kg/injection, schedule: Q01DX009 (ip), vehicle: saline with Tween-80): 150 % of control
- T/C [3]: 170 % of control
- T/C (dose: 600.0 mg/kg/injection, schedule: Q01DX009 (ip), vehicle: saline with Tween-80): 208 % of control

Structure (SMILES): O=C(O)Cc1ccc(N=Nc2c(O)c(C(=O)O)cc3ccccc23)cc1
- T/C [4]: 111 % of control
- T/C (dose: 200.0 mg/kg/injection, schedule: Q04DX003 (ip), vehicle: Klucel (hydroxypropylcellulose) (HPC)): 111 % of control
- T/C (dose: 400.0 mg/kg/injection, schedule: Q04DX003 (ip), vehicle: Klucel (hydroxypropylcellulose) (HPC)): 100 % of control

Structure (SMILES): CS(=O)(=O)N(c1ccccc1[N+](=O)[O-])S(C)(=O)=O
- T/C [5]: 109 % of control
- T/C (dose: 100.0 mg/kg/injection, schedule: Q04DX003 (ip), vehicle: saline with Tween-80): 87 % of control
- T/C [6]: 100 % of control
- T/C (dose: 200.0 mg/kg/injection, schedule: Q04DX003 (ip), vehicle: saline with Tween-80): 100 % of control
- T/C [3]: 104 % of control
- T/C (dose: 400.0 mg/kg/injection, schedule: Q04DX003 (ip), vehicle: saline with Tween-80): 104 % of control

Structure (SMILES): CNc1ccc(/C=C2\C=Cc3ccccc32)cc1
- T/C (dose: 12.0 mg/kg/injection, schedule: Q01DX009 (ip), vehicle: Klucel (hydroxypropylcellulose) (HPC)): 118 % of control
- T/C (dose: 12.0 mg/kg/injection, schedule: Q01DX009 (ip), vehicle: gum acacia): 107 % of control
- T/C (dose: 12.5 mg/kg/injection, schedule: Q04DX003 (ip), vehicle: gum acacia): 103 % of control
- T/C (dose: 25.0 mg/kg/injection, schedule: Q01DX009 (ip), vehicle: Klucel (hydroxypropylcellulose) (HPC)): 100 % of control
- T/C (dose: 25.0 mg/kg/injection, schedule: Q01DX009 (ip), vehicle: gum acacia): 103 % of control
- T/C (dose: 25.0 mg/kg/injection, schedule: Q04DX003 (ip), vehicle: Klucel (hydroxypropylcellulose) (HPC)): 104 % of control
- T/C (dose: 25.0 mg/kg/injection, schedule: Q04DX003 (ip), vehicle: gum acacia): 100 % of control
- T/C [2]: 90 % of control
- T/C (dose: 50.0 mg/kg/injection, schedule: Q01DX009 (ip), vehicle: gum acacia): 92 % of control
- T/C (dose: 50.0 mg/kg/injection, schedule: Q04DX003 (ip), vehicle: Klucel (hydroxypropylcellulose) (HPC)): 100 % of control
- T/C (dose: 50.0 mg/kg/injection, schedule: Q04DX003 (ip), vehicle: gum acacia): 103 % of control
- T/C [4]: 86 % of control and 95 % of control

Structure (SMILES): O=[N+]([O-])c1cccc(/C=C/c2cc(N(CCO)CCO)c3ccccc3n2)c1
- T/C (dose: 50.0 mg/kg/injection, schedule: Q01DX009 (ip), vehicle: saline with Tween-80): 91 % of control
- T/C [5]: 89 % of control
- T/C [6]: 94 % of control

Structure (SMILES): C[NH-].C[NH-].O=C(O)C(=O)O.[Pt+2]
- T/C (dose: 2.0 mg/kg/injection, schedule: Q04DX003 (ip), vehicle: other): 158 % of control
- T/C (dose: 3.0 mg/kg/injection, schedule: Q04DX003 (ip), vehicle: other): 200 % of control
- T/C (dose: 4.4 mg/kg/injection, schedule: Q04DX003 (ip), vehicle: other): 154 % of control
- T/C (dose: 4.5 mg/kg/injection, schedule: Q04DX003 (ip), vehicle: other): 166 % of control
- T/C (dose: 6.7 mg/kg/injection, schedule: Q04DX003 (ip), vehicle: other): 186 % of control
- T/C (dose: 10.0 mg/kg/injection, schedule: Q04DX003 (ip), vehicle: other): 190 % of control
- T/C (dose: 10.5 mg/kg/injection, schedule: Q04DX003 (ip), vehicle: other): 170 % of control
- T/C (dose: 12.5 mg/kg/injection, schedule: Q04DX003 (ip), vehicle: other): 208 % of control
- T/C (dose: 16.0 mg/kg/injection, schedule: Q04DX003 (ip), vehicle: other): 208 % of control
- T/C (dose: 25.0 mg/kg/injection, schedule: Q04DX003 (ip), vehicle: other): 250 % of control and 254 % of control and 183 % of control
- T/C (dose: 100.0 mg/kg/injection, schedule: Q04DX003 (ip), vehicle: other): 90 % of control
